# Key:
# ISC-enriched organoids [1] = experiment: Primary screen, 384-well 2.5-D organoid differentiation (ENR+CD, 6 days): basal lysozyme secretion (LYZ.NS); assay type: cell-based, murine; conditions: primary screen; for Dose.FC.LYZ.NS: ENR+CD 6 days, FC vs plate median; for Z.LYZ.NS: standard z score of FC; for Dose.FC.LYZ.NS (log 2 fold change): vs plate median
# Excerpt: (§1) High-throughput screening.
# ISC-enriched organoids [2] = experiment: Primary screen, 384-well 2.5-D organoid differentiation (ENR+CD, 6 days): carbachol-induced lysozyme secretion (LYZ.S); assay type: cell-based, murine; conditions: primary screen; for Dose.FC.LYZ.S: ENR+CD 6 days, FC vs plate median; for Dose.FC.LYZ.S (log 2 fold change): vs plate median
# Excerpt: as §1
# ISC-enriched organoids [3] = experiment: Primary screen, 384-well 2.5-D organoid differentiation (ENR+CD, 6 days, Target Selective Inhibitor Library, vs whole-plate median): ATP (CellTiter-Glo 3D, CTG); conditions: primary screen; for Dose.FC.CTG: ENR+CD 6 days, FC vs plate median; for Z.CTG: standard z score of FC; for Dose.FC.CTG (log 2 fold change): vs plate median
Compound,Dose.FC.LYZ.NS (ISC-enriched organoids [1]; dose 0.08 uM) [log 2 fold change],Z.LYZ.NS (ISC-enriched organoids [1]; dose 0.08 uM),Dose.FC.LYZ.NS (ISC-enriched organoids [1]; dose 0.40 uM) [log 2 fold change],Z.LYZ.NS (ISC-enriched organoids [1]; dose 0.40 uM),Dose.FC.LYZ.NS (ISC-enriched organoids [1]; dose 2.00 uM) [log 2 fold change],Z.LYZ.NS (ISC-enriched organoids [1]; dose 2.00 uM),Dose.FC.LYZ.NS (ISC-enriched organoids [1]; dose 10.00 uM) [log 2 fold change],Z.LYZ.NS (ISC-enriched organoids [1]; dose 10.00 uM),Dose.FC.LYZ.S (ISC-enriched organoids [2]; dose 0.08 uM) [log 2 fold change],Dose.FC.LYZ.S (ISC-enriched organoids [2]; dose 0.40 uM) [log 2 fold change],Dose.FC.LYZ.S (ISC-enriched organoids [2]; dose 2.00 uM) [log 2 fold change],Dose.FC.LYZ.S (ISC-enriched organoids [2]; dose 10.00 uM) [log 2 fold change],Dose.FC.CTG (ISC-enriched organoids [3]; dose 0.08 uM) [log 2 fold change],Z.CTG (ISC-enriched organoids [3]; dose 0.08 uM),Dose.FC.CTG (ISC-enriched organoids [3]; dose 0.40 uM) [log 2 fold change],Z.CTG (ISC-enriched organoids [3]; dose 0.40 uM),Dose.FC.CTG (ISC-enriched organoids [3]; dose 2.00 uM) [log 2 fold change],Z.CTG (ISC-enriched organoids [3]; dose 2.00 uM),Dose.FC.CTG (ISC-enriched organoids [3]; dose 10.00 uM) [log 2 fold change],Z.CTG (ISC-enriched organoids [3]; dose 10.00 uM),other results
C/C(=C\C(=O)Nc1ccccc1C(=O)O)c1ccc2ccccc2c1 [BIBR 1532],0.032,0.282,0.043,0.377,−0.013,−0.117,−0.062,−0.536,0.028,0.107,−0.081,−0.114,0.223,0.533,−0.047,−0.113,−0.034,−0.080,0.030,0.072,–
CCOC(=O)c1ccc(N2NC(=O)/C(=C/c3ccc([N+](=O)[O-])o3)C2=O)cc1 [PYR-41],–,–,–,–,–,–,–,–,–,–,–,–,–,–,–,–,–,–,–,–,Z.LYZ.NS (standard z score) (ISC-enriched organoids [1]; Dose 0.08 uM): 1.305; Dose.FC.LYZ.NS (log 2 fold change) (ISC-enriched organoids [1]; Dose 0.08 uM): 0.150; Z.LYZ.NS (standard z score) (ISC-enriched organoids [1]; Dose 0.40 uM): 0.777; Dose.FC.LYZ.NS (log 2 fold change) (ISC-enriched organoids [1]; Dose 0.40 uM): 0.089; Z.LYZ.NS (standard z score) (ISC-enriched organoids [1]; Dose 2.00 uM): 0.568; Dose.FC.LYZ.NS (log 2 fold change) (ISC-enriched organoids [1]; Dose 2.00 uM): 0.065; Z.LYZ.NS (standard z score) (ISC-enriched organoids [1]; Dose 10.00 uM): 0.861; Dose.FC.LYZ.NS (log 2 fold change) (ISC-enriched organoids [1]; Dose 10.00 uM): 0.099; Dose.FC.LYZ.S (log 2 fold change) (ISC-enriched organoids [2]; Dose 0.08 uM): 0.193; Dose.FC.LYZ.S (log 2 fold change) (ISC-enriched organoids [2]; Dose 0.40 uM): 0.076; Dose.FC.LYZ.S (log 2 fold change) (ISC-enriched organoids [2]; Dose 2.00 uM): 0.049; Dose.FC.LYZ.S (log 2 fold change) (ISC-enriched organoids [2]; Dose 10.00 uM): 0.129; Z.CTG (standard z score) (ISC-enriched organoids [3]; Dose 0.08 uM): 0.609; Dose.FC.CTG (log 2 fold change) (ISC-enriched organoids [3]; Dose 0.08 uM): 0.255; Z.CTG (standard z score) (ISC-enriched organoids [3]; Dose 0.40 uM): 0.762; Dose.FC.CTG (log 2 fold change) (ISC-enriched organoids [3]; Dose 0.40 uM): 0.319; Z.CTG (standard z score) (ISC-enriched organoids [3]; Dose 2.00 uM): 0.385; Dose.FC.CTG (log 2 fold change) (ISC-enriched organoids [3]; Dose 2.00 uM): 0.161; Z.CTG (standard z score) (ISC-enriched organoids [3]; Dose 10.00 uM): 0.229; Dose.FC.CTG (log 2 fold change) (ISC-enriched organoids [3]; Dose 10.00 uM): 0.096
C=CC(=O)Nc1cccc(Nc2nc(Nc3ccc(OCCOC)cc3)ncc2F)c1 [AVL-292],0.095,0.831,0.052,0.451,−0.112,−0.979,−0.213,−1.858,0.235,0.106,−0.206,−0.376,0.217,0.518,0.057,0.135,−0.058,−0.138,−0.778,−1.859,–
